Experimental data reported in paper PMC7948494, “Structure of an ancestral ADP-dependent kinase with fructose-6P reveals key residues for binding, catalysis, and ligand-induced conformational changes” (The Journal of Biological Chemistry, 2020).
Changes are numbered by the printed parent chain.

Experiments:
[1] = molecular target: T1, AncMsPFK (synthetic construct, UniProt Z9Y5W3ZEF0); assay: X-ray crystallography, […] Å; assay type: binding; conditions: closed conformation
T1 construct: synthetic gene in pET-15, N-terminal polyhistidine tag, E. coli BL21; heat step and Ni-Sepharose; 490 residues expected, one molecule per asymmetric unit
T1 sequence (Z9Y5W3ZEF0 22-511): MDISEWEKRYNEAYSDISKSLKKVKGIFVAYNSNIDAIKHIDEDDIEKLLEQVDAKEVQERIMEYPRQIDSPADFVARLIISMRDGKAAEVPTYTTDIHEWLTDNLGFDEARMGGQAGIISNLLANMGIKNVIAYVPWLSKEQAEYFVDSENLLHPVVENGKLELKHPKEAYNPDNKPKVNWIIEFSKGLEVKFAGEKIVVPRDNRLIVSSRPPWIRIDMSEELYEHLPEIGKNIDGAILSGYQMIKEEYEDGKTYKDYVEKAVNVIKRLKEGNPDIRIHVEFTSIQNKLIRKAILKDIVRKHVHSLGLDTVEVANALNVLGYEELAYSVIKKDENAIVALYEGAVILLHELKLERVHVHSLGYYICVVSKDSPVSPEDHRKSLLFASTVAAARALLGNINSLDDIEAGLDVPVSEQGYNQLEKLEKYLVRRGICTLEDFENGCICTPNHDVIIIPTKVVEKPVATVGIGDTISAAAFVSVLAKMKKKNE

[2] = molecular target: T2, AncMsPFK (synthetic construct, UniProt Z9Y5W3ZEF0, E111A); assay: coupled NADH oxidation assay, […] nm; assay type: biochemical; conditions: 1 mM ADP, 2 mM MgCl2, 100 mM Pipes pH 6.5, 25 °C; substrate inhibition fit
T2 construct: synthetic gene in pET-15, N-terminal polyhistidine tag, E. coli BL21; heat step and Ni-Sepharose; 490 residues expected, one molecule per asymmetric unit
T2 sequence (Z9Y5W3ZEF0 22-511 E111A): T1 sequence (Z9Y5W3ZEF0 22-511) with E90A

[3] = molecular target: T1, AncMsPFK; assay: coupled NADH oxidation assay, […] nm; assay type: biochemical; conditions: 1 mM ADP, 2 mM MgCl2, 100 mM Pipes pH 6.5, 25 °C

| SMILES | X-ray crystallography, 3.12 Å ([1]; ternary complex with F6P and Mg2+, nucleotide site) | F6P / KM mM [2] | F6P / KM mM [3] | X-ray crystallography, 3.12 Å ([1]; ternary complex with Mg-ADPβS, active site) |
| --- | --- | --- | --- | --- |
| Nc1ncnc2c1ncn2[C@@H]1O[C@H](COP(=O)(O)OP(=O)(O)S)[C@@H](O)[C@H]1O (stereo partly shown) [ADPβS] | The structure of the AncMsPFK in complex with F6P-Mg-ADPβS was solved by molecular replacement |  |  |  |
| O=P(O)(O)OC[C@H]1OC(O)(CO)[C@@H](O)[C@@H]1O (stereo partly shown) [F6P] |  | 0.09 ± 9.6 × 10^−3 mM | 0.014 ± 1.5 × 10^−3 mM | The structure of the AncMsPFK in complex with F6P-Mg-ADPβS was solved by molecular replacement |
